Structures are written as SMILES. Converted amounts (≈) assume the structure as drawn. Some results are limits rather than exact numbers.

This assay relates to KB. The assay can be described thus: Cytotoxicity against human KB cells. It counts as functional, cell-based.
`C=C[C@H]1[C@H](O[C@@H]2O[C@H](CO)[C@@H](O)[C@H](O)[C@H]2O)OC=C2C(=O)N(CC[C@@]3(O)C(=O)Nc4ccccc43)[C@H](O)C[C@H]21` [PARATUNAMIDE D] yielded a half-inhibitory concentration (IC50) of 6 µg/mL (≈ 10.9 µM).

For the compound `C=C[C@H]1[C@H](O[C@@H]2O[C@H](CO)[C@@H](O)[C@H](O)[C@H]2O)OC=C2C(=O)N(CC[C@@]3(O)C(=O)Nc4ccccc43)C(=O)C[C@H]21` [PARATUNAMIDE B], the IC50 is > 10 µg/mL.

Take `C=C[C@H]1[C@H](O[C@@H]2O[C@H](CO)[C@@H](O)[C@H](O)[C@H]2O)OC=C2C(=O)N(CC[C@]3(O)C(=O)Nc4ccccc43)C(=O)C[C@H]21` [PARATUNAMIDE C]: the IC50 was > 10 µg/mL.

For the compound `C=C[C@H]1[C@H](O[C@@H]2O[C@H](CO)[C@@H](O)[C@H](O)[C@H]2O)OC=C2C(=O)N(CC[C@@]3(O)C(=O)Nc4ccccc43)[C@H](OC)C[C@H]21` [PARATUNAMIDE A], the half-inhibitory concentration (IC50) is > 10 µg/mL.

As a reminder, the IC50 is the concentration that inhibits the measured activity by half.
